How the values were obtained:
[1] = tested on: Ground defatted feed quality soy; assay: Two-step hydrolysis of feed soy (°Brix, osmolality, DH); assay type: biochemical
Experimental: Ground defatted feed quality soy was mixed with deionised water under the conditions described below. The hydrolysis was carried out in two steps in order to simulate the pH conditions in the stomach and the small intestine.
70 g ground defatted soy
Time 1st step 180 minutes
Enzymes 1st step I) Pepsin 1.92 g
II) I + Bio-Feed Pro 3.0 L
2nd step I) Pancreatin 6 g
The enzymes were added at start 0 minutes. During the hydrolysis ° Brix and osmolality were measured to follow the reaction course. According to Adler-Nissen (1986) the osmolality values can be used for calculation of the Degree of Hydrolysis (DH) by the following equation: [formula] Where Δ is the increase in osmolality mOSM, S % is protein concentration, ω is the calibration factor for the osmometer, htot is the total number of peptide bonds in the protein substrate (meqv/g protein), and fosm is the factor for converting % to g/kg H2 O. [formula]

Hen Lysozyme = assay: Cleaning of contact lenses: removal of denatured 14C-lysozyme in 3% H2O2, pH 3.5; assay type: biochemical; conditions: 3% H2O2, pH 3.5, four hours, 25° C.; FIG. 7
Source text: The experimental protocol was as follows:
Materials: Hen Lysozyme, L-6878 from Sigma "Rythmic" contact lens' from Essilor (Type II lens, high-water, nonionic) Protease I produced as described above Protease II produced as described above Porcine pepsin, P-6887 from Sigma Subtilisin carlsberg, Clear-Lens Pro® (Novo Nordisk A/S).
Standard buffer: 0.05M Na2 HPO4, 0.9% NaCl pH 7.5
Scintillation liquid, Optiphase "HiSafe III"
Hen lysozyme from Sigma was labelled with ^14 C through reductive methylation and purified.
A solution was made containing 0.05M Na2 HPO4, 0.9% NaCl and 0.2 mg/ml lysozyme pH 7.5. An amount of ^14 C-labelled lysozyme was added so the CPM (Counts Per Minute) is approximately 200.000. 1.0 ml of the solution was transferred to a scintillation glass. The contact lens was added and the glass placed in a water-bath at 85° C. for 30 minutes.
The contact lens was then rinsed in 3×3 ml reagent buffer. It was quartered with a scalpel. Each quarter was transferred to a new scintillation glass containing 3 ml of the reagent buffer. […]
The reaction took place over four hours at 25° C. […] 12 ml scintillation liquid was added and CPM was measured in a Packard 2500 TR liquid scintillation counter. […]
The relative amount of lysozyme removed from the lens during the combined disinfection/cleaning was calculated from the mass balance of each quarter lens. […]

[2] = STEP II (pH 6.5, with Pancreatin), 180 min

Pepsin
mOSM ([1]; STEP I (pH 4.0, 40° C.), 0 min): 347 mOSM
mOSM INCREASE ([1]; STEP I (pH 4.0, 40° C.), 0 min): 0 mOSM
°BRIX ([1]; STEP I (pH 4.0, 40° C.), 0 min): 5.09 °BRIX
% DH (Degree of Hydrolysis) ([1]; STEP I (pH 4.0, 40° C.), 0 min, calculated from osmolality): 0%
% DH (Degree of Hydrolysis) ([1]; STEP I, 5 min): 2.86%
mOSM ([1]; STEP I, 5 min): 362 mOSM
mOSM INCREASE ([1]; STEP I, 5 min): 15 mOSM
°BRIX ([1]; STEP I, 5 min): 6.135 °BRIX
% DH (Degree of Hydrolysis) ([1]; STEP I, 10 min): 2.86%
mOSM ([1]; STEP I, 10 min): 362 mOSM
mOSM INCREASE ([1]; STEP I, 10 min): 15 mOSM
°BRIX ([1]; STEP I, 10 min): 6.505 °BRIX
% DH (Degree of Hydrolysis) ([1]; STEP I, 15 min): 2.57%
mOSM ([1]; STEP I, 15 min): 360.5 mOSM
mOSM INCREASE ([1]; STEP I, 15 min): 13.5 mOSM
°BRIX ([1]; STEP I, 15 min): 6.625 °BRIX
% DH (Degree of Hydrolysis) ([1]; STEP I, 30 min): 3.14%
mOSM ([1]; STEP I, 30 min): 363.5 mOSM
mOSM INCREASE ([1]; STEP I, 30 min): 16.5 mOSM
°BRIX ([1]; STEP I, 30 min): 6.9275 °BRIX
% DH (Degree of Hydrolysis) ([1]; STEP I, 45 min): 3.62%
mOSM ([1]; STEP I, 45 min): 366 mOSM
mOSM INCREASE ([1]; STEP I, 45 min): 19 mOSM
°BRIX ([1]; STEP I, 45 min): 7.345 °BRIX
% DH (Degree of Hydrolysis) ([1]; STEP I, 60 min): 4.00%
mOSM ([1]; STEP I, 60 min): 368 mOSM
mOSM INCREASE ([1]; STEP I, 60 min): 21 mOSM
°BRIX ([1]; STEP I, 60 min): 7.745 °BRIX
% DH (Degree of Hydrolysis) ([1]; STEP I, 90 min): 4.47%
mOSM ([1]; STEP I, 90 min): 370.5 mOSM
mOSM INCREASE ([1]; STEP I, 90 min): 23.5 mOSM
°BRIX ([1]; STEP I, 90 min): 8.175 °BRIX
% DH (Degree of Hydrolysis) ([1]; STEP I, 120 min): 4.95%
mOSM ([1]; STEP I, 120 min): 373 mOSM
mOSM INCREASE ([1]; STEP I, 120 min): 26 mOSM
°BRIX ([1]; STEP I, 120 min): 8.695 °BRIX
% DH (Degree of Hydrolysis) ([1]; STEP I, 180 min): 6.57%
mOSM ([1]; STEP I, 180 min): 381.5 mOSM
mOSM INCREASE ([1]; STEP I, 180 min): 34.5 mOSM
°BRIX ([1]; STEP I, 180 min): 9.195 °BRIX
mOSM [1, 2]: 468 mOSM
mOSM INCREASE [1, 2]: 0 mOSM
°BRIX [1, 2]: 12.965 °BRIX
mOSM ([1]; STEP II, 185 min): 996 mOSM
mOSM INCREASE ([1]; STEP II, 185 min): 528 mOSM
°BRIX ([1]; STEP II, 185 min): 15.135 °BRIX
mOSM ([1]; STEP II, 190 min): 1009 mOSM
mOSM INCREASE ([1]; STEP II, 190 min): 541 mOSM
°BRIX ([1]; STEP II, 190 min): 15.4025 °BRIX
mOSM ([1]; STEP II, 195 min): 1015.5 mOSM
mOSM INCREASE ([1]; STEP II, 195 min): 547.5 mOSM
°BRIX ([1]; STEP II, 195 min): 15.637 °BRIX
mOSM ([1]; STEP II, 210 min): 1037.5 mOSM
mOSM INCREASE ([1]; STEP II, 210 min): 569.5 mOSM
°BRIX ([1]; STEP II, 210 min): 16.135 °BRIX
mOSM ([1]; STEP II, 225 min): 1054.5 mOSM
mOSM INCREASE ([1]; STEP II, 225 min): 586.5 mOSM
°BRIX ([1]; STEP II, 225 min): 16.415 °BRIX
mOSM ([1]; STEP II, 240 min): 1068.5 mOSM
mOSM INCREASE ([1]; STEP II, 240 min): 600.5 mOSM
°BRIX ([1]; STEP II, 240 min): 16.705 °BRIX
mOSM ([1]; STEP II, 270 min): 1087.5 mOSM
mOSM INCREASE ([1]; STEP II, 270 min): 619.5 mOSM
°BRIX ([1]; STEP II, 270 min): 17.075 °BRIX
mOSM ([1]; STEP II, 300 min): 1111 mOSM
mOSM INCREASE ([1]; STEP II, 300 min): 643 mOSM
°BRIX ([1]; STEP II, 300 min): 17.437 °BRIX
mOSM ([1]; STEP II, 360 min): 1148 mOSM
mOSM INCREASE ([1]; STEP II, 360 min): 680 mOSM
°BRIX ([1]; STEP II, 360 min): 18.075 °BRIX

B1: Subtilisin carlsberg (protein, UniProt P00780 106-379, looked up)
Subtilisin Carlsberg: AQTVPYGIPLIKADKVQAQGFKGANVKVAVLDTGIQASHPDLNVVGGASFVAGEAYNTDGNGHGTHVAGTVAALDNTTGVLGVAPSVSLYAVKVLNSSGSGSYSGIVSGIEWATTNGMDVINMSLGGASGSTAMKQAVDNAYAKGVVVVAAAGNSGSSGNTNTIGYPAKYDSVIAVGAVDSNSNRASFSSVGAELEVMAPGAGVYSTYPTNTYATLNGTSMASPHVAGAAALILSKHPNLSASQVRNRLSSTATYLGSSFYYGKGLINVEAAAQ
notes: Subtilisin carlsberg, Clear-Lens Pro® (Novo Nordisk A/S), presently used serin protease for contact lens cleaning
performance in contact lens cleaning (lysozyme removed) (Hen Lysozyme): poor performance
